Experimental data: patent US11517532B2, “Methods of treating hepatitis delta virus infection” (Eiger BioPharmaceuticals, Inc., priority 2015, dated 2022)
Read-outs that look alike come from different tables or passages of the source.

Legend:
[1] = cited from earlier work
[2] = formulated in crystalline forms, animals; cited from earlier work
[3] = Lonafarnib serum concentration in HDV patients, Example 3; assay type: in vivo, human; settings: for LNF Serum Concentration at Week 6 / concentration at 6 weeks: oral; for LNF Serum Concentration at Week 6: listed as LNF; for concentration at 6 weeks: human, serum, po, read-out: LNF Serum Concentration at Week 6
Protocol: Serum levels of lonafarnib can be measured using art-known methods. As used herein, a serum lonafarnib level or concentration can be measured from a serum sample obtained from a subject periodically (such as weekly, biweekly, monthly or according to other schedules) and the levels during intervening periods can be extrapolated. For example, if a measurement of 4,000 ng/ml is obtained at 4 weeks and a measurement of 6,000 ng/ml is obtained at 6 weeks, for purposes of this analysis it is concluded that the serum level during the intervening two weeks ranged between 4,000 and 6,000 ng/ml. In some embodiments the first measurement is made no earlier than one week after the initiation of oral therapy.
This example describes the anti-HDV effect of combination therapy with separately formulated lonafarnib and ritonavir at several combinations of dosages. Eight patients with chronic HDV infection were divided into four groups and treated with different dose combinations of separately formulated lonafarnib and ritonavir (orally administered) for 42 days under the regimens summarized in Table 10. The patients were followed for an additional period of time after discontinuation of therapy.

[4] = Group 2 (Patients 3-4): lonafarnib 100 mg BID + ritonavir 50 mg QD
[5] = Group 3 (Patients 5-6): lonafarnib 100 mg QD + ritonavir 100 mg QD
[6] = Group 4 (Patients 7-8): lonafarnib 150 mg QD + ritonavir 100 mg QD

- LNF Serum Concentration at Week 6 [3, 4]: 3044 ng/mL
- LNF Serum Concentration at Week 6 [3, 5]: 1640 ng/mL
- LNF Serum Concentration at Week 6 [3, 6]: 1830 ng/mL
- lonafarnib serum levels (FIG. 6) ([3]; Patient 8, reduced correlation with HDV viral load): ~2,000 ng/mL
- LNF serum concentrations ([3]; QD dosing of ritonavir): 2500 to 3500 ng/mL
- concentration at 6 weeks [3, 4]: 4.03 µg/mL
- concentration at 6 weeks [3, 5]: 2.34 µg/mL
- concentration at 6 weeks [3, 6]: 1.84 µg/mL
- lonafarnib serum levels (FIG. 5) ([3]; one patient, 100 mg BID lonafarnib + 100 mg QD ritonavir, inverse correlation with HDV viral load): ~5,000 ng/mL
SMILES: NC(=O)N1CCC(CC(=O)N2CCC([C@H]3c4ncc(Br)cc4CCc4cc(Cl)cc(Br)c43)CC2)CC1 [lonafarnib]
- stability in solution ([1]; by pH): stable at neutral pH but will hydrolyze in acidic or basic conditions
- water solubility [1]: poorly water soluble
- bioavailability [2]: low and variable
